Literature values in article PMC10093509, “Diagnosis and Treatment of Peripheral and Cranial Nerve Tumors with Expert Recommendations: An EUropean Network for RAre CANcers (EURACAN) Initiative” (Cancers, 2023).
Like-named read-outs stand apart in the source and are kept apart here. *1 amine or outer side, *2 acyl side, *3 side chain or, on linkers, in order; H or OH if unused. Where a SMILES comes first, the peptide text is derived from it. Bridges are numbered along the chain shown (N, C = ends). Roman numbers before positions name the chains, in order. [ ]: non-standard residue; d: D form. Actinocin(9to1) = Cc1c2oc3c(C)ccc(C(=O)[*:1])c3nc-2c(C(=O)[*:2])c(N)c1=O; NMeV = CN[C@H](C(=O)O)C(C)C; Sar = CNCC(=O)O

Assays:
[1] = test system: plexiform neurofibromas (PN) of neurofibromatosis; parameters: method as in PMID 23099009, PMID 24500418, PMID 24753394, PMID 24851266, PMID 25314964; conditions: initial studies
MPNST [2] = test system: MPNST; parameters: method as in PMID 19451433; conditions: seven MPNST patients
MPNST [3] = test system: MPNST; parameters: method as in PMID 20838322; conditions: alone or in combination
[4] = test system: NF1 PNs, progressive or causing significant neurological symptoms
MPNST [5] = test system: MPNST; parameters: method as in PMID 26710211; conditions: 14 MPNST patients
MPNST [6] = test system: MPNST; parameters: method as in PMID 27502708
[7] = test system: unresectable or metastatic MPNST; parameters: method as in PMID 33512749; conditions: one patient with NF1-associated MPNST; selinexor alone
[8] = test system: sporadic metastatic MPNST; parameters: method as in PMID 31383651; conditions: one patient; following four cycles
MPNST [9] = test system: MPNST; parameters: method as in PMID 24618336
[10] = test system: MPNST harboring a novel SNRNP70-NTRK3 fusion gene
asymptomatic PNs = test system: asymptomatic PNs; parameters: method as in PMID 35467749; conditions: median 41 cycles (2–67)
spinal PNs = test system: spinal PNs; parameters: method as in PMID 35467749, PMID 32939452
[11] = test system: unresectable, symptomatic, and progressive PNs; conditions: adults
NF1 inoperable PNs [12] = test system: NF1 inoperable PNs
NF1 inoperable PNs [13] = test system: NF1 inoperable PNs; parameters: method as in PMID 28029918
NF-1-associated PN = test system: NF-1-associated PN; parameters: method as in doi:10.1200/JCO.2018.36.15_suppl.10504
[14] = test system: NF-1-associated PNs or low-grade gliomas; parameters: method as in PMID 36015104; conditions: meta-analysis
[15] = test system: progressive or symptomatic inoperable PNs
MPNST [16] = test system: MPNST; parameters: method as in doi:10.1200/jco.2006.24.18_suppl.9518
MPNST [17] = test system: MPNST; parameters: method as in PMID 19451436; conditions: 15 patients
[18] = test system: progressive VS associated with NF2; parameters: method as in PMID 22805104
[19] = test system: progressive vestibular schwannomas (VS) associated with NF2; parameters: method as in PMID 26976425; conditions: 7.5 mg/kg every 3 weeks
advanced MPNST = test system: advanced MPNST; parameters: method as in PMID 32638374
NF1-associated MPNST = test system: NF1-associated MPNST; parameters: method as in PMID 35100687; conditions: one patient
[20] = test system: progressive and/or symptomatic PNs; parameters: method as in PMID 33507822

Cc1ccc(NC(=O)c2ccc(CN3CCN(C)CC3)cc2)cc1Nc1nccc(-c2cccnc2)n1 [imatinib]
benefit in PN [1]: limited benefits | best response (MPNST [2]): stable disease as the best response in one patient | median PFS (MPNST [2]): 1.9 months

Cn1cncc1[C@@](N)(c1ccc(Cl)cc1)c1ccc2c(c1)c(-c1cccc(Cl)c1)cc(=O)n2C [tipifarnib]
benefit in PN [1]: limited benefits

O=P1(N(CCCl)CCCl)NCCCO1 (stereo not shown) [cyclophosphamide]
results in treatment of MPNST (MPNST [3]): disappointing results

c1c[nH]cn1 [imidazole]
results in treatment of MPNST (MPNST [3]): disappointing results

Cc1c2oc3c(C)ccc(C(=O)N[C@@H]4C(=O)N[C@H](C(C)C)C(=O)N5CCC[C@H]5C(=O)N(C)CC(=O)N(C)[C@@H](C(C)C)C(=O)O[C@@H]4C)c3nc-2c(C(=O)N[C@@H]2C(=O)N[C@H](C(C)C)C(=O)N3CCC[C@H]3C(=O)N(C)CC(=O)N(C)[C@@H](C(C)C)C(=O)O[C@@H]2C)c(N)c1=O [dactinomycin] (I: T[dV]P[Sar][NMeV] / II: T[dV]P[Sar][NMeV]; ester I:1-I:C, II:1-II:C; linker I:N-II:N via Actinocin(9to1))
results in treatment of MPNST (MPNST [3]): disappointing results

CC[C@]1(O)C[C@H]2CN(CCc3c([nH]c4ccccc34)[C@@](C(=O)OC)(c3cc4c(cc3OC)N(C=O)[C@H]3[C@@](O)(C(=O)OC)[C@H](OC(C)=O)[C@]5(CC)C=CCN6CC[C@]43[C@@H]65)C2)C1 [vincristine]
results in treatment of MPNST (MPNST [3]): disappointing results

N.N.O=C([O-])C1(C(=O)[O-])CCC1.[Pt+2] [carboplatin]
results in treatment of MPNST (MPNST [3]): disappointing results

Cn1cnc2c(F)c(Nc3ccc(Br)cc3F)c(C(=O)NOCCO)cc21 [binimetinib]
discontinuation of treatment (patients) [4]: 2 patients | dose reduction required for grade 3 adverse events (patients) [4]: 13 patients | PR ([4]; 14 out of 19 patients): 73.7%

N.N.[Cl][Pt][Cl] [cisplatin]
results in treatment of MPNST (MPNST [3]): disappointing results

Cc1nc(Nc2ncc(C(=O)Nc3c(C)cccc3Cl)s2)cc(N2CCN(CCO)CC2)n1 [dasatinib]
ORR (MPNST [5]): did not show any ORR

COc1cc(Nc2ncc3c(n2)-c2ccc(Cl)cc2C(c2c(F)cccc2OC)=NC3)ccc1C(=O)O [alisertib]
OS (MPNST [6]): 69 weeks | PFS (MPNST [6]): 13 weeks

O=C(/C=C\n1cnc(-c2cc(C(F)(F)F)cc(C(F)(F)F)c2)n1)NNc1cnccn1 [selinexor]
duration of disease stabilization [7]: 13.5 months

pembrolizumab
response [8]: complete response

COc1cccc2c1C(=O)c1c(O)c3c(c(O)c1C2=O)C[C@@](O)(C(=O)CO)C[C@@H]3O[C@H]1C[C@H](N)[C@H](O)[C@H](C)O1 [doxorubicin]
median OS (MPNST [9]): 51 weeks | median PFS (MPNST [9]): 16 weeks

Cc1ccc(=O)n(-c2ccccc2)c1 [pirfenidone]
benefit in PN [1]: limited benefits

CN1CCN(c2ccc(C(=O)Nc3n[nH]c4ccc(Cc5cc(F)cc(F)c5)cc34)c(NC3CCOCC3)c2)CC1 [entrectinib]
response ([10]; one heavily pretreated patient): dramatic response | duration of response ([10]; one patient): 10 months

Cn1cnc2c(F)c(Nc3ccc(Br)cc3Cl)c(C(=O)NOCCO)cc21 [selumetinib]
patients achieving tumor shrinkage (asymptomatic PNs): 72% | clinical benefit and radiological response with reduction of spinal canal distortion and/or spinal cord deformity (patients) (spinal PNs): 18/24 | increased liver enzymes (patients) [11]: five | pain intensity [11]: decreased pain intensity | pancreatic enzyme elevation (patients) [11]: one | rash (patients) [11]: one | ORR ([11]; phase 2): 69% | tumor volume shrinkage as best response ([11]; phase 2): 22% | clinically meaningful improvement in child-reported interference of pain in daily functioning (NF1 inoperable PNs [12]; SPRINT): 38% | clinically meaningful improvement in overall health-related QoL (NF1 inoperable PNs [12]; SPRINT): 48% | median reduction in tumor volume (NF1 inoperable PNs [12]; SPRINT): 27% | ORR (NF1 inoperable PNs [12]; SPRINT, 50 patients): 68% | median progression-free survival (PFS) (NF1 inoperable PNs [12]; at the time of interim-analysis): not reached | toxicity (NF1 inoperable PNs [12]; children, creatine kinase increase, rash, paronychia, gastrointestinal toxicity): mostly mild and reversible | median reduction in tumor volume (NF1 inoperable PNs [13]; phase 1): 31% | stable disease (patients) (NF1 inoperable PNs [13]; phase 1): 2 | objective response rate (ORR) (NF1 inoperable PNs [13]; phase 1, 3–18 years): 71% | median time PR maintained (NF1 inoperable PNs [13]; range 6–42): 23 cycles

CO[C@H]1C[C@@H]2CC[C@@H](C)[C@@](O)(O2)C(=O)C(=O)N2CCCC[C@H]2C(=O)O[C@H]([C@H](C)C[C@@H]2CC[C@@H](OCCO)[C@H](OC)C2)CC(=O)[C@H](C)/C=C(\C)[C@@H](O)[C@@H](OC)C(=O)[C@H](C)C[C@H](C)/C=C/C=C/C=C/1C [everolimus]
benefit in PN [1]: limited benefits

interferon alfa-2b
benefit in PN [1]: limited benefits

CC(=O)Nc1cccc(-n2c(=O)n(C3CC3)c(=O)c3c(Nc4ccc(I)cc4F)n(C)c(=O)c(C)c32)c1 [trametinib]
duration of radiological response (NF-1-associated PN): more than 12 months | PR (NF-1-associated PN; 12 out of 26 patients, interim analysis): 46% | side effects (NF-1-associated PN; such as paronychia and rash): manageable | ORR [14]: 45.3% | disease control rate [14]: 99.8%

CO[C@H]1C[C@@H]2CC[C@@H](C)[C@@](O)(O2)C(=O)C(=O)N2CCCC[C@H]2C(=O)O[C@H]([C@H](C)C[C@@H]2CC[C@@H](O)[C@H](OC)C2)CC(=O)[C@H](C)/C=C(\C)[C@@H](O)[C@@H](OC)C(=O)[C@H](C)C[C@H](C)/C=C/C=C/C=C/1C [sirolimus]
benefit in PN [1]: limited benefits

COc1cc2nccc(Oc3ccc(NC(=O)C4(C(=O)Nc5ccc(F)cc5)CC4)cc3)c2cc1OC [Cabozantinib]
patients who experienced grade 3 adverse events [15]: 38% | quality of life [15]: no significant improvement | ORR ([15]; NF-105): 42% | intensity of pain ([15]; after four cycles, patients who achieved a PR): early decrease | tumor volume reduction ([15]; from 2.8% to −38.0%): 15%

C#Cc1cccc(Nc2ncnc3cc(OCCOC)c(OCCOC)cc23)c1 [erlotinib]
OS (MPNST [16]): 48 weeks | PFS (MPNST [16]): 24 weeks

CNC(=O)c1cc(Oc2ccc(NC(=O)Nc3ccc(Cl)c(C(F)(F)F)c3)cc2)ccn1 [sorafenib]
radiological responses (MPNST [17]): absence of radiological responses

bevacizumab
hearing and radiographic outcome [18]: remarkable improvement of hearing and objective radiographic responses | partial radiographic response with volume reduction of 20% or more (patients) ([19]; 6/14 patients): 43% | hearing improvement (patients) ([19]; NF2 patients with progressive VS): 36%

Cc1ccc(Nc2nccc(N(C)c3ccc4c(C)n(C)nc4c3)n2)cc1S(N)(=O)=O [pazopanib]
OS (advanced MPNST): 10.6 months | PFS (advanced MPNST): 5.4 months | clinical benefit rate (advanced MPNST; at 12 weeks): 50%

nivolumab
response (NF1-associated MPNST): prolonged PR

O=C(NOC[C@H](O)CO)c1ccc(F)c(F)c1Nc1ccc(I)cc1F [Mirdametinib]
median reduction in tumor volume [20]: 17.1% | most frequent AEs [20]: acneiform rash, fatigue, and nausea | patient-reported outcomes over treatment [20]: improvement
